Experimental data: ChEMBL document CHEMBL1201862, “PubChem BioAssay data set” (2004)
The source made the active and inactive calls.

Legend:
[1] = molecular target: T1, Heat shock factor protein 1 (Mus musculus, UniProt P38532); test: HSF1 potentiators in luciferase reporter cells, confirmation, cell-based, NIH3T3, luminescence, dose retest (AID 435004); format: functional;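 also: stress induced by proteasome inhibitor MG132 added 30 min after compound; luciferase reporter driven by HSF1 response element in NIH3T3 cells; actives raise luminescence as potentiators of the MG132 stress response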
T1 sequence (P38532 whole entry): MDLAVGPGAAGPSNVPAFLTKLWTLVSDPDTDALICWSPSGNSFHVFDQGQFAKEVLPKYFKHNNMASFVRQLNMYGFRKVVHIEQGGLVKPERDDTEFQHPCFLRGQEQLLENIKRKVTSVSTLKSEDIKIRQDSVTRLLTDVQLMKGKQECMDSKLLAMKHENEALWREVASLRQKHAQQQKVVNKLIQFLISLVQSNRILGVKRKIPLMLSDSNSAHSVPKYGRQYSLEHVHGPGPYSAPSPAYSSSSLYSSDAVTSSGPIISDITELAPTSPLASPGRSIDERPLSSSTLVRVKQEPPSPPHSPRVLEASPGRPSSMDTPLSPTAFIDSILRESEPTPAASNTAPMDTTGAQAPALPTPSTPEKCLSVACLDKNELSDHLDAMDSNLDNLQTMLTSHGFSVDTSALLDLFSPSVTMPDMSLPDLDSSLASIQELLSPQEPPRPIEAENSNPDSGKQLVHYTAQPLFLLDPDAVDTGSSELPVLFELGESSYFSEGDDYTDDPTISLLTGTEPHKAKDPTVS

[2] = molecular target: T1, Heat shock factor protein 1; test: inhibition of MG132-induced HSE-luciferase signal, confirmation, cell-based, NIH3T3, luminescence, dose retest (AID 2382); format: functional;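 also: NIH3T3 fibroblasts with HSF1-driven luciferase reporter stressed by proteasome inhibitor MG132; luminescence from HSF1-driven luciferase expression after 8 hours of MG132 stress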
[3] = molecular target: T2, Rac GTPase-activating protein 1 (Homo sapiens, UniProt Q9H0H5); test: MgcRacGAP GTPase-activating activity inhibitors, confirmation, biochemical, ADP Hunter fluorescence, primary and confirmatory (AID 624330); format: functional
T2 sequence (Q9H0H5 whole entry): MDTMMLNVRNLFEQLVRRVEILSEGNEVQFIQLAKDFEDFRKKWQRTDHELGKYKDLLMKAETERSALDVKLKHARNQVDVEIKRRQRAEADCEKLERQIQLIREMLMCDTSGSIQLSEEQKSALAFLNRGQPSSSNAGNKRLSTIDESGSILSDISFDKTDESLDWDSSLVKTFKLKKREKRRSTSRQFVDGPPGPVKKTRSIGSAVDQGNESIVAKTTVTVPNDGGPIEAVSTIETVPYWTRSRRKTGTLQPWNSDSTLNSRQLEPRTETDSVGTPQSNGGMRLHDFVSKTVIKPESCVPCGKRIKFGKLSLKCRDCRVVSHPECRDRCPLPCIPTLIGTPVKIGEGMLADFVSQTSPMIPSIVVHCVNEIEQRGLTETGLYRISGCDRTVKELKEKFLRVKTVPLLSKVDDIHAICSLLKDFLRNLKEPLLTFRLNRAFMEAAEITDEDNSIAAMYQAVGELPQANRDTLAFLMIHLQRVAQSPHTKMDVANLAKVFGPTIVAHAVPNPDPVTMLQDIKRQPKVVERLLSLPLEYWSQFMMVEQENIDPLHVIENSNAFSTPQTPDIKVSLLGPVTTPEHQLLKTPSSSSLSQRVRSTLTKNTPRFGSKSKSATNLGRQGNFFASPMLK

Streptococcus = test: Group A Streptococcus viability loss, dose response, counter-screen for streptokinase expression inhibitor project, luminescence, BacTiterGlo (AID 1915); format: functional, organism-based; conditions: Streptococcus;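 also: potency for reduction of bacterial viability or growth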
[4] = system: Streptococcus sp. 'group A'; test: growth inhibition of control SK(-) GAS strain, dose response, counter-screen for streptokinase expression inhibitor project, luminescence, kanamycin, BacTiterGlo, confirmation (AID 1900); format: functional, organism-based; conditions: Streptococcus sp. 'group A'
Paired box protein Pax-8 = Paired box protein Pax-8 (Homo sapiens, UniProt Q06710); test: inhibitors of PAX8-driven TPO luciferase reporter, dose response, RMG-I cells, cherry-pick (AID 687027); format: functional, cell-based;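 also: luciferase reporter driven by Pax8 target thyroperoxidase promoter measured by SteadyGlo luminescence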
Sequence of Paired box protein Pax-8 (Q06710 whole entry): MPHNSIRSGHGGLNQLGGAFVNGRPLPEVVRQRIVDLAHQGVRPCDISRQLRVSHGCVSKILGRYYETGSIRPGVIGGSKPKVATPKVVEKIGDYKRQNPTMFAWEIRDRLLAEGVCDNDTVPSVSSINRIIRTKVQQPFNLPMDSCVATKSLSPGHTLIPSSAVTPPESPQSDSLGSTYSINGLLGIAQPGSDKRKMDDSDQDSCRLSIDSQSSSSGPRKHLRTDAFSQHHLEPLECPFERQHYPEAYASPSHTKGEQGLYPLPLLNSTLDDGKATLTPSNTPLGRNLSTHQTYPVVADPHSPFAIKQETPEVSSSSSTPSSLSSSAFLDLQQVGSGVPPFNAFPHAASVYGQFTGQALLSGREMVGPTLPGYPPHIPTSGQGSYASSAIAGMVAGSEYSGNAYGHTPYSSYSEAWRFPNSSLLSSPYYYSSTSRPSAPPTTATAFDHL

[5] = molecular target: T3, Corticotropin-releasing factor receptor 2/Corticotropin-releasing factor-binding protein (Homo sapiens, UniProt P24387+Q13324); test: activators of CRF receptor 2 with binding protein – uHTS hits, confirmation (AID 602473); format: functional; conditions: read-out: EC50_Mean
T3 sequence (Q13324 whole entry): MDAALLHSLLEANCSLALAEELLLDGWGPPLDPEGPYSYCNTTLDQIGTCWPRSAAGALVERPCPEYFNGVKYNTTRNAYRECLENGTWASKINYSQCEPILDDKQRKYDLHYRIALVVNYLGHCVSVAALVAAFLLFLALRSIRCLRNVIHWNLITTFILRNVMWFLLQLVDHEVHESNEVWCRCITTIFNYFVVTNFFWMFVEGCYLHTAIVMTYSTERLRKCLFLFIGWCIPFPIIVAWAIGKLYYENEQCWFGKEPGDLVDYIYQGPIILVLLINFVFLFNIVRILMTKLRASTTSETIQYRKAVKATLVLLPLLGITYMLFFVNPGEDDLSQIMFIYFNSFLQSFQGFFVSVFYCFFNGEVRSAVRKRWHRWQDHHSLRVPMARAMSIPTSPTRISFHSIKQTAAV
T3 sequence (P24387 whole entry): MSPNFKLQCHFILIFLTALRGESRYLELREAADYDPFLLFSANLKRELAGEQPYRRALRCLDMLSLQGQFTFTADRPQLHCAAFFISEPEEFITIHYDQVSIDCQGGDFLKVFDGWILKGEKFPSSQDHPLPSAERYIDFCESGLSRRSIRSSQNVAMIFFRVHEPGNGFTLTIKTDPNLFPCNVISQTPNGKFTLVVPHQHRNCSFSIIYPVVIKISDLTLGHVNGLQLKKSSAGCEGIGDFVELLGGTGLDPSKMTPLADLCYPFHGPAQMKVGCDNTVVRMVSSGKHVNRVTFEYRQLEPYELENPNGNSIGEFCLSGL

Cytochrome P450 2C19 = Cytochrome P450 2C19 (Homo sapiens, UniProt P33261); test: Cytochrome panel assay with activity outcomes. Panel member name: p450-cyp2c19 Compounds with AC50 equal or less than 10 uM are considered active; format: functional; conditions: read-out: AC50
Sequence of Cytochrome P450 2C19 (P33261 whole entry): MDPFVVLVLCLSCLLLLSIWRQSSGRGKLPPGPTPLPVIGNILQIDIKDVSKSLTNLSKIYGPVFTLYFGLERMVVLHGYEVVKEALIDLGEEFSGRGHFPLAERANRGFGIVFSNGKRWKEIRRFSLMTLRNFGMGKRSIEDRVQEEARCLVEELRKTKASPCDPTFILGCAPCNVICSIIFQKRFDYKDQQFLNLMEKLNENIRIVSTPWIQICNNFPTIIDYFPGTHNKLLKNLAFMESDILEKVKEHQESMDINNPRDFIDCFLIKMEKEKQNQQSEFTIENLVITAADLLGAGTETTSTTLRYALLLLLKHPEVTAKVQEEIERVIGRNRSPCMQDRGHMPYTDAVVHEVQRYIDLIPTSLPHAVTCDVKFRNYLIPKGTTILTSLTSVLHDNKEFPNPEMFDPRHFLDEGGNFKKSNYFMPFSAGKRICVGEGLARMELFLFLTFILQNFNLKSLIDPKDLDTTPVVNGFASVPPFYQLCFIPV

Cytochrome P450 2C9 = Cytochrome P450 2C9 (Homo sapiens, UniProt P11712)
Sequence of Cytochrome P450 2C9 (P11712 whole entry): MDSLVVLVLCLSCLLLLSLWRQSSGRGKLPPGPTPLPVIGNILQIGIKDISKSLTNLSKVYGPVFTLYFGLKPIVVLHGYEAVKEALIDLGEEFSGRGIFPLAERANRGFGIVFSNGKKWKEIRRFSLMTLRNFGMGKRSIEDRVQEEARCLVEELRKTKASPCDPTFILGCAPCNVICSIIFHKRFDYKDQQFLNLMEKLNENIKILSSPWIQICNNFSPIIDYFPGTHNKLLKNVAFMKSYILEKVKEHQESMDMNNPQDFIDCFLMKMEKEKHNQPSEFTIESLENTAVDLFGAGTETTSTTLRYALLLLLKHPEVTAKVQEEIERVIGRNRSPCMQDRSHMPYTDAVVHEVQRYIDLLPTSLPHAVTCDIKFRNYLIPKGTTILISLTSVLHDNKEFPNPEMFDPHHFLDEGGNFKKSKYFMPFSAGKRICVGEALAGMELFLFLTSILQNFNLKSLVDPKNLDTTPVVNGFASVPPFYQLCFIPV

Cytochrome P450 3A4 = Cytochrome P450 3A4 (Homo sapiens, UniProt P08684);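 also: CYP3A4 tested as one member of a cytochrome P450 panel screen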
Sequence of Cytochrome P450 3A4 (P08684 whole entry): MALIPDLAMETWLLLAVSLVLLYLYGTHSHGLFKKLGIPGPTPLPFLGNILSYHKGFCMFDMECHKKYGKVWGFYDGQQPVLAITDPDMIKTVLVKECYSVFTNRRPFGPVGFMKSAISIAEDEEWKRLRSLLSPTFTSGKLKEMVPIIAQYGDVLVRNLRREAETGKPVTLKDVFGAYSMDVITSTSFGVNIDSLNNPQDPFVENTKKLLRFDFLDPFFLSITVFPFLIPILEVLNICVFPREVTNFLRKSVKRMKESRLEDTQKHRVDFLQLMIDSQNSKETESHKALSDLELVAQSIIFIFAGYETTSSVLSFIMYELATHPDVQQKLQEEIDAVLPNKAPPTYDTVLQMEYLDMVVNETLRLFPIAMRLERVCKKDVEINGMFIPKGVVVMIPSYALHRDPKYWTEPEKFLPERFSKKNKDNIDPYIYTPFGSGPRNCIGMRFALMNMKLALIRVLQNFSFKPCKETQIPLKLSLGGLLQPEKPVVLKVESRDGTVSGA

H4 = test: Luminescence Cell-Based Dose Response HTS to Identify Activators of 5'UTR Stem-Loop Driven Prion Protein mRNA Translation in H4 Neuroglioblastoma Cells. [Related pubchem assays: 1829 (Project Summary), 1814 (Primary HTS)]; format: functional; conditions: Homo sapiens
[6] = Luminescence Cell-Based Dose Response HTS to Identify Activators of Luciferase Translation or Activity in H4 […] Cells. [Related pubchem assays: 1829 (Project Summary), 1814 (Primary HTS)]; format: functional

O=C(CN1C(=O)NC2(CCCc3ccccc32)C1=O)Nc1cccc(S(=O)(=O)N2CCCCC2)c1 (configuration not stated)
EC50 [1]: > 260 µM (inactive)

CC(=O)Nc1ccc(NC(=O)CSc2cn(CC(=O)N3CCOCC3)c3ccccc23)cc1
EC50 [2]: > 195 µM (not active)

Cc1ccc(OC(=O)c2ccc3nc(C)sc3c2)cc1
EC50 [2]: 0.737 µM (active)

NC(S)=NNc1ccnc2cc(Cl)ccc12
IC50 [3]: 110 µM (active)

CCOc1cc(/C=N/NC(=O)c2cc(C3CC3)[nH]n2)ccc1O
IC50 [3]: 54.9 µM (active)

CCOC(=O)C1(CC2CCCCO2)CCN(Cc2nc3ccccc3[nH]2)CC1 (configuration not stated)
EC50 [2]: > 195 µM (not active)

CCN(CC)S(=O)(=O)c1cccc(-c2nnc(SCC(N)=O)n2CCc2ccccc2)c1
EC50 [2]: > 195 µM (not active)

O=C(NCc1ccccc1)[C@]1(C(F)(F)F)C[C@H](CCc2ccccc2)CCCO1
EC50 [2]: > 195 µM (not active)

OCC1(CCCc2ccccc2)CCN(C2CCSCC2)CC1
EC50 [1]: > 260 µM (inactive)

Cc1ccc2[nH]c(SCC(=O)c3ccc(Cl)s3)nc2c1
EC50 (Streptococcus): > 150 µM (not active)
EC50 [4]: > 150 µM (not active)

O=C(Cc1ccccn1)N1CCCCN2[C@@H](CO)[C@@H](c3ccc(-c4ccc(F)cc4)cc3)[C@@H]2C1
AC50 (Paired box protein Pax-8): 22.6 µM (active)

O=C(CNc1ccc2c(c1)OCO2)N/N=C\c1ccccc1Cl
IC50 [3]: 114 µM (active)

O=C(NCc1cc(C(F)(F)F)cc(C(F)(F)F)c1)C1CC(c2cccc([N+](=O)[O-])c2)=NO1 (configuration not stated)
EC50 [1]: 38.4 µM (active)

N#C/C(=C/c1cc(Br)cs1)C(=O)NCC1CCCO1 (configuration not stated)
EC50 [2]: > 195 µM (not active)

Cc1ccccc1NC(=O)COC(=O)c1ccc(S(C)(=O)=O)c([N+](=O)[O-])c1
EC50 [2]: 6.14 µM (active)

Cc1nc2ccc(C(=O)Nc3ccc(N(C)C)cc3)cc2s1
IC50 [3]: 39.3 µM (active)

CCOc1cccc(C2NCc3ccccc3-n3cccc32)c1O (configuration not stated)
EC50 [1]: > 260 µM (inactive)

CCN(CC)CCCNCC(=O)Nc1cc(C)on1
IC50 [3]: 99.4 µM (active)

C[C@@H]1CN([C@H](C)CO)C(=O)Cc2cc(NC(=O)Nc3ccc(F)cc3)ccc2O[C@H]1CN(C)C(=O)Nc1ccc(C(F)(F)F)cc1
AC50 (Paired box protein Pax-8): 11.4 µM (active)

CC(=O)c1ccccc1NC(=O)C1C2CCC(O2)C1C(=O)O (configuration not stated)
EC50 [1]: > 260 µM (inactive)

CC12CCC3C(CC=C4CC(O)CCC43C)C1C/C(=C\N1CCCC1)C2=O (configuration not stated)
EC50 [1]: > 260 µM (inactive)

CC(C)N1CCC(N2CCN(C3CCCC3)CC2CCO)CC1 (configuration not stated)
EC50 [2]: > 195 µM (not active)

COc1cc(CNc2ncnc3c2ncn3[C@H]2CN(Cc3ccc(-c4ccccc4)cc3)C[C@@H](CO)O2)cc(OC)c1OC
AC50 (Paired box protein Pax-8): 7.36 µM (active)

Cc1cccc(C)c1NC(=O)CN1C(=O)NC(C)(CCc2ccccc2)C1=O (configuration not stated)
EC50 [2]: > 195 µM (not active)

COc1ccc(N2CCN(C(CNS(=O)(=O)c3cccs3)c3cccnc3)CC2)cc1 (configuration not stated)
IC50 [3]: 120 µM (active)

CCOc1cc(C=NNC(=O)CCCC(=O)NN=Cc2ccc(O)c(OCC)c2)ccc1O
IC50 [3]: 50.4 µM (active)

CCC(=O)N1N/C(=C2/C(=O)NC(=O)N(CCc3ccccc3)C2=O)CC1c1ccc(OC)c(OC)c1 (configuration not stated)
EC50 (Streptococcus): 26.4 µM (active)
EC50 [4]: 1.4 µM (active)

COC(=O)c1ccccc1N=C(S)N(Cc1ccc2c(c1)OCO2)Cc1cc2ccc(OC)cc2nc1O
EC50 [1]: > 260 µM (inactive)

CC(=O)c1cnn(-c2c(Cl)cc(Cl)cc2Cl)c1C
EC50 [2]: > 195 µM (not active)

O=C(CSCc1ccc(Br)cc1)N1CCCC1
EC50 [1]: 108 µM (active)

Cc1nc([N+](=O)[O-])cn1-c1ccc(N)cc1
EC50 [2]: > 195 µM (not active)

Cc1c(N=C2N=C(NC(=O)c3ccc(F)cc3)c3ccccc32)c(=O)n(-c2ccccc2)n1C
EC50 [5]: 15.6 µM (active)

COc1cc(/C=C2\SC(=S)N(NC(=O)c3ccc(O)cc3)C2=O)ccc1O
IC50 [3]: 59 µM (active)

Cc1ccccc1N1CCN(S(=O)(=O)Cc2ccccc2)CC1
EC50 [1]: > 260 µM (inactive)

Nc1ccc(C(=O)N/N=C/c2ccccc2)cc1
AC50 (Cytochrome P450 2C19): 15.8 µM (inconclusive)
AC50 (Cytochrome P450 2C9): 0.282 µM (inconclusive)
AC50 (Cytochrome P450 3A4): 15.8 µM (inconclusive)

O=C(Cn1[nH]c(=O)c2ccccc2c1=O)OCC(=O)c1ccccc1Cl
EC50 [2]: > 195 µM (not active)

Cn1c(N)c(-c2ccccc2)c2ccc([N+](=O)[O-])cc2c1=O
EC50 [5]: 4.5 µM (active)

Brc1ccccc1OCCCCCN1CCOCC1
IC50 [3]: 146 µM (active)

O=[N+]([O-])c1cccc(-c2ncc3ccccn23)c1
EC50 [1]: > 260 µM (inactive)

COc1ccc(O/C(=N\S(=O)(=O)c2ccccc2)c2ccccc2)cc1
IC50 [3]: 45.5 µM (active)

O=C(c1ccc(Cl)c(S(=O)(=O)N2CCCCCC2)c1)N1CCN(c2ccc(O)cc2)CC1
IC50 [3]: 33.7 µM (active)

COCCN(CCOC)c1nc(-c2ccc(C)cc2)nc2ccccc12
EC50 [1]: > 260 µM (inactive)

O=C(O)c1ccn(Cn2cnc3ccccc32)n1
EC50 [2]: > 195 µM (not active)

CCN(C(=O)c1ccc2c(SCC(=O)O)c3c(nc2c1)CCC3)c1cc(Cl)ccc1OC
EC50 [2]: > 195 µM (not active)

C=CCn1c(=O)c2c3c(sc2n2c(Nc4ccccc4)nnc12)CCCC3
EC50 [1]: > 260 µM (inactive)

Cn1cccc1/C=N/N1CCN(Cc2ccccc2Cl)CC1
IC50 [3]: 82.1 µM (active)

Cc1cc(/C=C(\C#N)C(=O)NC2CC2)c(C)[nH]1
EC50 (H4): > 120 µM (not active)
EC50 [6]: 0.857 µM (active)
